Results: US12650424B2, “Method and system for determining intracellular mediators' activity” (ECOLE POLYTECHNIQUE FEDERALE DE LAUSANNE (EPFL), priority 2020, dated 2026)

What was measured:
[1] = system: angiotensin receptor; conditions: plasma membranes of HEK cells on beads
[2] = system: Protease-activated receptor PAR; test: dose response of GPCR activation in plasma membranes on immunostained WGA-beads (Gαq release); assay type: biochemical; conditions: plasma membranes of HEK cells on beads; different concentrations
Text: FIG. 3. Schematic representation of the synthetic GPCR screening platform. 1. […] 2. […] 3. […] This leads to fluorescence labeled Gα-protein subunits. 4. […] 5.

| Substance | receptor activation triggering release of Gαi [1] | receptor activation triggering release of Gαq [2] |
| --- | --- | --- |
| angiotensin | activated in a dose-dependent manner | – |
| thrombin | – | activated by different concentrations |
